# Read-outs that look alike come from different tables or passages of the source.
# Experiments:
# Str. pneumoniae A-9585 = test: MIC, tube dilution, Streptococcus pneumoniae A9585; format: cell-based; details: Streptococcus pneumoniae, A9585, Str. pneumoniae A9585; overnight 37° C., Nutrient Broth; read-out: Minimum Inhibitory Concentration (M.I.C.)
# Text: (§1) Representative compounds of the present invention were subjected to in vitro antibiotic screening against a variety of microorganisms.
# Str. pyogenes A-9604 = test: MIC, tube dilution, Streptococcus pyogenes A9604; format: cell-based; details: Streptococcus pyogenes, A9604, Str. pyogenes A9604; overnight 37° C., Nutrient Broth; read-out: Minimum Inhibitory Concentration (M.I.C.)
# Text: as §1
# Staph. aureus A-9537 = test: MIC, tube dilution, Staphylococcus aureus A9537; format: cell-based; details: Staphylococcus aureus, A9537, Staph. aureus A9537; overnight 37° C., Nutrient Broth; read-out: Minimum Inhibitory Concentration (M.I.C.)
# Text: as §1
# [1] = system: Staph. aureus A-9537 and 50% serum; test: MIC, tube dilution, Staph. aureus A9537 + 50% serum; format: cell-based, Staphylococcus aureus; details: Staphylococcus aureus, overnight 37° C., read-out: Minimum Inhibitory Concentration (M.I.C.)
# Text: as §1
# [2] = system: Staph. aureus (Pen-Res) A-9606; test: MIC, tube dilution, Staphylococcus aureus A9606 (Pen-Res); format: cell-based; details: Staphylococcus aureus, Staph. aureus A9606 (Pen-Res); overnight 37° C.; read-out: Minimum Inhibitory Concentration (M.I.C.)
# Text: as §1
# Str. faecalis A-20688 = test: MIC, tube dilution, Streptococcus faecalis A20688; format: cell-based; details: Enterococcus faecalis, A20688, Str. faecalis A20688; overnight 37° C.; read-out: Minimum Inhibitory Concentration (M.I.C.)
# Text: as §1
# E. coli A-15119 = test: MIC, tube dilution, Escherichia coli A15119; format: cell-based; details: Escherichia coli, A15119, E. coli A15119; overnight 37° C.; read-out: Minimum Inhibitory Concentration (M.I.C.)
# Text: as §1
# E. coli A-20341-1 = test: MIC, tube dilution, Escherichia coli A20341-1; format: cell-based
# Text: as §1
# K. pneumoniae A-15130 = test: MIC, tube dilution, Klebsiella pneumoniae A15130; format: cell-based; details: Klebsiella pneumoniae, A15130, K. pneumoniae A15130; overnight 37° C.; read-out: Minimum Inhibitory Concentration (M.I.C.)
# Text: as §1
# [3] = system: Klebsiella species A20468; test: MIC, tube dilution, Klebsiella species A20468; format: cell-based; details: Klebsiella species (K. pneumoniae) A20468; overnight 37° C.; read-out: Minimum Inhibitory Concentration (M.I.C.)
# Text: as §1
# Pr. mirabilis A-9900 = test: MIC, tube dilution, Proteus mirabilis A9900; format: cell-based; details: Proteus mirabilis, A9900, Proteus mirabilis A9900; overnight 37° C.; read-out: Minimum Inhibitory Concentration (M.I.C.)
# Text: as §1
# Pr. morganii A-15153 = test: MIC, tube dilution, Proteus morganii A15153; format: cell-based; details: Morganella morganii, A15153, Proteus morganii A15153; overnight 37° C.; read-out: Minimum Inhibitory Concentration (M.I.C.)
# Text: as §1
# Ser. marcescens A-20019 = test: MIC, tube dilution, Serratia marcescens A20019; format: cell-based; details: Serratia marcescens, A20019, Serratia marcescens A20019; overnight 37° C.; read-out: Minimum Inhibitory Concentration (M.I.C.)
# Text: as §1
# Ent. cloacae A-9659 = test: MIC, tube dilution, Enterobacter cloacae A9659; format: cell-based; details: overnight 37° C.; for MIC: Enterobacter cloacae, A9659, Enterobacter cloacae A9659, read-out: Minimum Inhibitory Concentration (M.I.C.)
# Text: as §1
# Ent. cloacae A-9656 = test: MIC, tube dilution, Enterobacter cloacae A9656; format: cell-based; details: overnight 37° C., read-out: Minimum Inhibitory Concentration (M.I.C.)
# Text: as §1
# Ps. aeruginosa A-9843A = test: MIC, tube dilution, Pseudomonas aeruginosa A9843A; format: cell-based; details: Pseudomonas aeruginosa, A9843A, read-out: Minimum Inhibitory Concentration (M.I.C.), Pseudomonas aeruginosa A9843A; overnight 37° C.
# Text: as §1
# Ps. aeruginosa A-21213 = test: MIC, tube dilution, Pseudomonas aeruginosa A21213; format: cell-based; details: overnight 37° C.; for MIC: read-out: Minimum Inhibitory Concentration (M.I.C.)
# Text: as §1
# Proteus rettgeri A21203 = test: MIC, tube dilution, Proteus rettgeri A21203; format: cell-based; details: Providencia rettgeri, A21203, Proteus rettgeri A21203; overnight 37° C.; read-out: Minimum Inhibitory Concentration (M.I.C.)
# Text: as §1
# Proteus vulgaris A21559 = test: MIC, tube dilution, Proteus vulgaris A21559; format: cell-based; details: Proteus vulgaris, A21559, Proteus vulgaris A21559; overnight 37° C.; read-out: Minimum Inhibitory Concentration (M.I.C.)
# Text: as §1
# S. aureus A9537 = test: In vivo protection of mice, lethal infection with S. aureus A9537; details: Staphylococcus aureus, A9537, im, IM, 2 treatments, read-out: PD50
# Description: Representative compounds of the present invention were also tested in vivo in mice and their PD50 (dose of compound in mg/kg required to protect 50% of the treated mice against an otherwise lethal infection of a micro-organism) values determined with respect to the test organisms shown below.
# [4] = Mouse blood levels after intramuscular administration; format: in vivo; details: average of 6 mice, read-out: Mouse blood level
# Description: Mouse blood levels after intramuscular administration of representative compounds of the present invention were determined and are reported in the table below.
# [5] = system: Staph. aureus (Meth-Res) A-15097; test: MIC, tube dilution, Staphylococcus aureus A15097 (Meth-Res); format: cell-based; details: Staphylococcus aureus, overnight 37° C.
# Text: as §1
# [6] = Escherichia coli, A203411, E. coli A20341-1; overnight 37° C.; read-out: Minimum Inhibitory Concentration (M.I.C.)
# [7] = Enterobacter cloacae, A9656, Enterobacter cloacae A9656
# [8] = Pseudomonas aeruginosa, A21213, Pseudomonas aeruginosa A21213
# [9] = Staph. aureus A15097 (Meth-Res), read-out: Minimum Inhibitory Concentration (M.I.C.)
# [10] = read-out: Minimum Inhibitory Concentration (M.I.C.), Staph. aureus A15097 (Meth-Res)
SMILES,MIC (Str. pneumoniae A-9585),MIC (Str. pyogenes A-9604),MIC (Staph. aureus A-9537),MIC [1],MIC [2],MIC (Str. faecalis A-20688),MIC (E. coli A-15119),MIC (E. coli A-20341-1; [6]),MIC (K. pneumoniae A-15130),MIC [3],MIC (Pr. mirabilis A-9900),MIC (Pr. morganii A-15153),MIC (Ser. marcescens A-20019),MIC (Ent. cloacae A-9659),MIC (Ent. cloacae A-9656; [7]),MIC (Ps. aeruginosa A-9843A),MIC (Ps. aeruginosa A-21213; [8]),MIC (Proteus rettgeri A21203),MIC (Proteus vulgaris A21559),"MIC [5, 9]",further results
"C[C@@H](O)[C@H]1C(=O)N2C(C(=O)O)=C([C@H]3C[C@H](N)C3)S[C@H]12 (relative stereo) [Example 65, (1""R,5R,6S and 1'S,5S,6R)-2-(trans-3'-Amino-1'-cyclobutyl)-6-(1""-hydroxy-1""-ethyl)penem-3-carboxylic Acid (isomer B)]",0.004 µg/mL,0.004 µg/mL,0.008 µg/mL,0.06 µg/mL,0.06 µg/mL,0.5 µg/mL,0.13 µg/mL,< 0.25 µg/mL,< 0.25 µg/mL,0.5 µg/mL,< 0.25 µg/mL,1 µg/mL,0.5 µg/mL,4 µg/mL,0.5 µg/mL,16 µg/mL,125 µg/mL,< 0.25 µg/mL,< 0.25 µg/mL,–,Minimum Inhibitory Concentration (M.I.C.) (Ent. cloacae A-9659; Enterobacter cloacae A9659): 2 µg/mL; Minimum Inhibitory Concentration (M.I.C.) (Ps. aeruginosa A-21213; Pseudomonas aeruginosa A21213): 63 µg/mL; ED50 (S. aureus A9537; 7.8 × 10^5 organisms): 0.12 mg/kg; concentration at 10 min ([4]; 10 minutes after IM 40 mg/kg): 44700 ng/mL; concentration at 20 min ([4]; 20 minutes after IM 40 mg/kg): 34400 ng/mL; concentration at 0.5 h ([4]; 30 minutes after IM 40 mg/kg): 23700 ng/mL; concentration at 0.75 h ([4]; 45 minutes after IM 40 mg/kg): 17600 ng/mL; concentration at 1 h ([4]; 60 minutes after IM 40 mg/kg): 9800 ng/mL; concentration at 1.5 h ([4]; 90 minutes after IM 40 mg/kg): 3600 ng/mL; concentration at 2 h ([4]; 120 minutes after IM 40 mg/kg): 1000 ng/mL
"CC(N)CCC1=C(C(=O)O)N2C(=O)C[C@H]2S1 (some centres unmarked) [Example 80, 2-(3'-Aminobutyl)-penem-3-carboxylic Acid]",0.03 µg/mL,0.06 µg/mL,0.06 µg/mL,0.25 µg/mL,0.5 µg/mL,16 µg/mL,4 µg/mL,8 µg/mL,8 µg/mL,> 63 µg/mL,4 µg/mL,16 µg/mL,8 µg/mL,16 µg/mL,8 µg/mL,63 µg/mL,> 63 µg/mL,8 µg/mL,8 µg/mL,> 63 µg/mL,ED50 (S. aureus A9537; 8 × 10^5 organisms): 0.6 mg/kg
"CCCC(N)C1=C(C(=O)O)N2C(=O)CC2S1 [Example 82, (1'R,5R and 1'S,5S) and (1'R,5S and 1'S,5R) 2-(1'-Aminobutyl)-penem-3-carboxylic Acid]",0.016 µg/mL,0.016 µg/mL,0.25 µg/mL,4 µg/mL,16 µg/mL,63 µg/mL,8 µg/mL,32 µg/mL,32 µg/mL,> 125 µg/mL,4 µg/mL,16 µg/mL,16 µg/mL,63 µg/mL,32 µg/mL,> 125 µg/mL,–,8 µg/mL,8 µg/mL,4 µg/mL,MIC (Ps. aeruginosa A-21213; Pseudomonas aeruginosa A21213): > 125 µg/mL; ED50 (S. aureus A9537; 1 × 10^6 organisms): 1.25 mg/kg
"N#CCCC(N)C1=C(C(=O)O)N2C(=O)C[C@H]2S1 (some centres unmarked) [Example 83, 2-(1'-Amino-3'-cyanopropyl)-penem-3-carboxylic Acid]",0.06 µg/mL,0.13 µg/mL,0.5 µg/mL,8 µg/mL,32 µg/mL,125 µg/mL,2 µg/mL,16 µg/mL,8 µg/mL,> 125 µg/mL,2 µg/mL,4 µg/mL,4 µg/mL,16 µg/mL,4 µg/mL,63 µg/mL,63 µg/mL,4 µg/mL,8 µg/mL,> 125 µg/mL,ED50 (S. aureus A9537; 1.1 × 10^6 organisms): 3.3 mg/kg
"CC1(C)OCC(C(N)C2=C(C(=O)O)N3C(=O)CC3S2)O1 [Example 84, (1'R,2'R,5R and 1'S,2'S,5S),(1'R,2'R,5S and 1'S,2'S,5R), (1'R,2'S,5S and 1'S,2'R,5R), (1'R,2'S,5R and 1'S,2'R,5S) 2-(1'-Amino-2,3-dihydroxy-2,3-acetonylpropyl)-penem-3-carboxylic Acid]",1 µg/mL,1 µg/mL,4 µg/mL,32 µg/mL,16 µg/mL,> 125 µg/mL,16 µg/mL,–,125 µg/mL,> 125 µg/mL,8 µg/mL,16 µg/mL,63 µg/mL,125 µg/mL,–,> 125 µg/mL,–,32 µg/mL,63 µg/mL,–,"MIC [5, 10]: > 125 µg/mL; MIC (E. coli A-20341-1; Escherichia coli, A203411; E. coli A20341-1; overnight 37° C.; read-out: Minimum Inhibitory Concentration (M.I.C.)): > 125 µg/mL; MIC (Ent. cloacae A-9656; Enterobacter cloacae A9656): 125 µg/mL; MIC (Ps. aeruginosa A-21213; Pseudomonas aeruginosa A21213): > 125 µg/mL; ED50 (S. aureus A9537; 1 × 10^6 organisms): 33 mg/kg"
"O=C(O)C1=C(CCC[N+](=O)[O-])SC2CC(=O)N12 (centres unmarked) [Example 91, 2-(3'-Nitropropyl)-penem-3-carboxylic Acid]",0.25 µg/mL,0.25 µg/mL,0.25 µg/mL,16 µg/mL,32 µg/mL,63 µg/mL,1 µg/mL,63 µg/mL,16 µg/mL,> 125 µg/mL,1 µg/mL,4 µg/mL,4 µg/mL,4 µg/mL,2 µg/mL,125 µg/mL,–,2 µg/mL,8 µg/mL,–,"MIC [5, 10]: > 125 µg/mL; MIC (Ps. aeruginosa A-21213; Pseudomonas aeruginosa A21213): 125 µg/mL; ED50 (S. aureus A9537; 9.1 × 10^5 organisms): 9.6 mg/kg"
